Measured values from the NIST ThermoML archive (doi:10.1016/j.jct.2018.10.015).
± gives the expanded uncertainty stated by the source.

Assay: xn = mol fraction of the nth substance listed
Conditions: 101.3 kPa, Liquid; for viscosity: Concentric cylinders viscometry; for mass density: Vibrating tube method

CCn1cc[n+](C)c1C.O=S(=O)([N-]S(=O)(=O)C(F)(F)F)C(F)(F)F + COC(=O)OC
Conditions	mass density [kg/m3]	viscosity [mPa·s]
293.15 K, x1 = 0.099	1189 ± 2.5	1.706 ± 0.022
293.15 K, x1 = 0.1994	1269.4 ± 2.5	3.137 ± 0.04
293.15 K, x1 = 0.298	1325 ± 2.5	5.492 ± 0.069
293.15 K, x1 = 0.4006	1368.1 ± 2.5	9.266 ± 0.12
293.15 K, x1 = 0.5003	1400.9 ± 2.5	14.65 ± 0.18
293.15 K, x1 = 0.5738	1420.8 ± 2.5	20.1 ± 0.25
293.15 K, x1 = 0.6927	1447.3 ± 2.5	31.98 ± 0.4
293.15 K, x1 = 0.8138	1469.2 ± 2.5	49.28 ± 0.61
293.15 K, x1 = 0.8951	1481.5 ± 2.5	64.02 ± 0.8
293.15 K, x1 = 1	1495.8 ± 2.5	89.88 ± 1.3
298.15 K, x1 = 0.099	1183 ± 2.5	1.581 ± 0.02
298.15 K, x1 = 0.1994	1263.8 ± 2.5	2.849 ± 0.035
298.15 K, x1 = 0.298	1319.6 ± 2.5	4.9 ± 0.059
298.15 K, x1 = 0.4006	1362.9 ± 2.5	8.114 ± 0.098
298.15 K, x1 = 0.5003	1395.7 ± 2.5	12.58 ± 0.15
298.15 K, x1 = 0.5738	1415.7 ± 2.5	17.03 ± 0.21
298.15 K, x1 = 0.6927	1442.3 ± 2.5	26.57 ± 0.32
298.15 K, x1 = 0.8138	1464.3 ± 2.5	40.16 ± 0.49
298.15 K, x1 = 0.8951	1476.7 ± 2.5	51.6 ± 0.62
298.15 K, x1 = 1	1491 ± 2.5	71.34 ± 0.92
303.15 K, x1 = 0.099	1177 ± 2.5	1.469 ± 0.019
303.15 K, x1 = 0.1994	1258.1 ± 2.5	2.6 ± 0.032
303.15 K, x1 = 0.298	1314.2 ± 2.5	4.402 ± 0.053
303.15 K, x1 = 0.4006	1357.7 ± 2.5	7.169 ± 0.086
303.15 K, x1 = 0.5003	1390.6 ± 2.5	10.91 ± 0.13
303.15 K, x1 = 0.5738	1410.6 ± 2.5	14.6 ± 0.18
303.15 K, x1 = 0.6927	1437.4 ± 2.5	22.36 ± 0.27
303.15 K, x1 = 0.8138	1459.4 ± 2.5	33.22 ± 0.41
303.15 K, x1 = 0.8951	1471.8 ± 2.5	42.25 ± 0.52
303.15 K, x1 = 1	1486.3 ± 2.5	57.64 ± 0.7
308.15 K, x1 = 0.099	1171 ± 2.5	1.368 ± 0.018
308.15 K, x1 = 0.1994	1252.4 ± 2.5	2.383 ± 0.029
308.15 K, x1 = 0.298	1308.8 ± 2.5	3.98 ± 0.048
308.15 K, x1 = 0.4006	1352.5 ± 2.5	6.384 ± 0.077
308.15 K, x1 = 0.5003	1385.5 ± 2.5	9.555 ± 0.12
308.15 K, x1 = 0.5738	1405.6 ± 2.5	12.64 ± 0.15
308.15 K, x1 = 0.6927	1432.4 ± 2.5	19.05 ± 0.23
308.15 K, x1 = 0.8138	1454.5 ± 2.5	27.85 ± 0.34
308.15 K, x1 = 0.8951	1467 ± 3	35.08 ± 0.43
308.15 K, x1 = 1	1481.5 ± 2.5	47.26 ± 0.58
313.15 K, x1 = 0.099	1164.8 ± 2.5	1.276 ± 0.016
313.15 K, x1 = 0.1994	1246.8 ± 2.5	2.192 ± 0.027
313.15 K, x1 = 0.298	1303.4 ± 2.5	3.619 ± 0.044
313.15 K, x1 = 0.4006	1347.3 ± 2.5	5.728 ± 0.069
313.15 K, x1 = 0.5003	1380.4 ± 2.5	8.44 ± 0.1
313.15 K, x1 = 0.5738	1400.5 ± 2.5	11.05 ± 0.13
313.15 K, x1 = 0.6927	1427.5 ± 2.5	16.38 ± 0.2
313.15 K, x1 = 0.8138	1449.7 ± 2.5	23.62 ± 0.28
313.15 K, x1 = 0.8951	1462.2 ± 2.5	29.48 ± 0.36
313.15 K, x1 = 1	1476.7 ± 2.5	39.24 ± 0.48
318.15 K, x1 = 0.099	1158.7 ± 2.5	1.193 ± 0.015
318.15 K, x1 = 0.1994	1241.2 ± 2.5	2.023 ± 0.025
318.15 K, x1 = 0.298	1298 ± 2.5	3.308 ± 0.04
318.15 K, x1 = 0.4006	1342.1 ± 2.5	5.173 ± 0.062
318.15 K, x1 = 0.5003	1375.3 ± 2.5	7.511 ± 0.09
318.15 K, x1 = 0.5738	1395.5 ± 2.5	9.74 ± 0.12
318.15 K, x1 = 0.6927	1422.6 ± 2.5	14.24 ± 0.17
318.15 K, x1 = 0.8138	1444.8 ± 2.5	20.25 ± 0.24
318.15 K, x1 = 0.8951	1457.4 ± 2.5	25.06 ± 0.3
318.15 K, x1 = 1	1472 ± 2.5	33 ± 0.4
323.15 K, x1 = 0.099	1152.5 ± 2.5	1.114 ± 0.015
323.15 K, x1 = 0.1994	1235.5 ± 2.5	1.87 ± 0.023
323.15 K, x1 = 0.298	1292.7 ± 2.5	3.037 ± 0.037
323.15 K, x1 = 0.4006	1336.9 ± 2.5	4.699 ± 0.056
323.15 K, x1 = 0.5003	1370.2 ± 2.5	6.73 ± 0.08
323.15 K, x1 = 0.5738	1390.5 ± 2.5	8.649 ± 0.1
323.15 K, x1 = 0.6927	1417.6 ± 2.5	12.48 ± 0.15
323.15 K, x1 = 0.8138	1440 ± 2.5	17.52 ± 0.21
323.15 K, x1 = 0.8951	1452.6 ± 2.5	21.53 ± 0.26
323.15 K, x1 = 1	1467.2 ± 2.5	28.05 ± 0.34
328.15 K, x1 = 0.099	1146.3 ± 2.5	1.042 ± 0.014
328.15 K, x1 = 0.1994	1230 ± 2.5	1.737 ± 0.021
328.15 K, x1 = 0.298	1287.3 ± 2.5	2.802 ± 0.034
328.15 K, x1 = 0.4006	1331.7 ± 2.5	4.286 ± 0.051
328.15 K, x1 = 0.5003	1365.2 ± 2.5	6.083 ± 0.072
328.15 K, x1 = 0.5738	1385.5 ± 2.5	7.757 ± 0.092
328.15 K, x1 = 0.6927	1412.7 ± 2.5	11.06 ± 0.13
328.15 K, x1 = 0.8138	1435.1 ± 2.5	15.34 ± 0.18
328.15 K, x1 = 0.8951	1447.8 ± 2.5	18.72 ± 0.22
328.15 K, x1 = 1	1462.4 ± 2.5	24.16 ± 0.29
